Where two headings read alike, the source gives them in different places. Bridge positions count the residues as written; N and C are the ends. Ends that are not written are not given here. Peptide text beside a SMILES is read from it.
Assays:
[1] = test system: primary activated human lymphocytes (PBMCs); assay type: cell-based; conditions: for immunosuppressive activity: mutation in hydrophilic 'bioactive face', Table 1, Figure 2
Procedure: (§1) Purified T-cells were obtained by CD3^+ positive selection using magnetic cell separation method according to manufacturer’s instructions (StemCell Technologies, Grenoble, France). Cells were washed twice with medium and cell viability as well as concentration was determined using the trypan blue exclusion test.
(§2) After cultivation, the cells were assessed in biological tests as described. Alternatively for IL-2 supplementation assays, lymphocytes or purified T-cells were equilibrated for 2 h at 37°C.

[2] = test system: purified human T-cells (CD3+); assay type: cell-based; conditions: cyclotides 1.8-14 µM
Procedure: as §1, §2

[3] = test system: IL-2 surface receptor CD25; assay type: cell-based, human; conditions: 4 µM; for IL-2 surface receptor CD25 expression compared to stimulated lymphocytes (ctrl, 100%): mean ± SD
Procedure: as §2
Cultured cells were washed with PBS and stained with PE-labeled anti-human CD25 mAbs (eBioscience) for 15 min at 4°C. Afterwards, the cells were washed twice with PBS and resuspended and transferred into FACS vials and expression of the IL-2 surface receptor α-chain CD25 was measured by FACS analysis using a FACSCalibur instrument.

[4] = test system: IL-2 release of activated lymphocytes; assay type: cell-based, human; conditions: 4 µM; 24 h then PMA/ionomycin 6 h; mean ± SD
Procedure: as §2
(§3) Cells were treated for 24 or 36 h, respectively and were restimulated with PMA (50 ng/mL) and ionomycin (500 ng/mL) for additional 6 h. Supernatants were harvested by centrifugation and were stored at -20°C. The amount of cytokines was measured and quantified using the FlowCytomix^TM technique according to manufacturer’s instructions (eBioscience) or alternatively intracellular cytokine production was determined. For this purpose the cells were fixed and permeabilized using 4% paraformaldehyde (Sigma-Aldrich) and Perm/Wash solution (Becton Dickinson), followed by staining with PE-conjugated anti-human IFN-γ mAb or anti-human TNF-α mAb (both from eBioscience), respectively. For CD107a degranulation assay, cells were restimulated with PMA (10 or 50 ng/mL, respectively) und ionomycin (100 or 500 ng/mL, respectively) and to each well containing 200 µL of cell suspension, 5 µL (~0.25 µg) PE-conjugated anti-CD107a mAb (eBioscience) were added. After incubation at 37°C for 1 h, 2 µL of 1/10 diluted GolgiStop (Becton Dickinson) was added per well and the plates were incubated for another 2.5 h. Samples were analyzed with a BD FACSCalibur flow cytometer using BD CellQuest Pro Software.

[5] = test system: IL-2 release of purified T-cells; assay: IL-2 secretion of purified T-cells, ELISA-based; assay type: cell-based, human; conditions: 4 µM; 24 h then PMA/ionomycin 6 h; relative to [V10K] kalata B1
Procedure: as §2, §3

il-2 mRNA = assay: il-2 gene expression, quantitative RT-PCR; assay type: cell-based, human; conditions: 4 µM; lymphocytes; normalized to 18s rRNA
Procedure: Total RNA was extracted from controls or treated cells (4 x 10^6) and frozen at -80°C until further use. RNA purification was performed according to the manufacturer’s instructions for the RNeasy mini and RNAse-Free DNAse digestion kits (Qiagen, Hamburg, Germany). The quantity and purity of extracted RNA was measured by nanodrop spectrophotometry (Peqlab, Erlangen, Gemany) and purified RNA was reverse transcribed using the RT^2 First Strand Kit (Qiagen). RT-PCR reactions were carried out on a MyiQ kit (BioRad, Munich, Germany) in a final volume of 25 µL using RT² qPCR Primer Assay (for il-2) and SYBR® Green qPCR master mix (both from Qiagen). Each determination was performed in duplicate and the housekeeping gene 18s rRNA was used as an internal control. The real-time thermal cycler program comprised an initial denaturation step at 95 °C for 10 min followed by a two-step program with 40 cycles (95°C, 15 sec; and 60°C, 60 sec). The relative gene expression of il-2 has been determined by comparative cycle threshold analysis and the data were normalized to the internal housekeeping gene 18s rRNA and the relative mRNA level in the untreated group (untreated PHA-L-activated).

[6] = test system: primary human lymphocytes; assay type: cell-based; conditions: for proliferation compared to control, pretreated and washed cells with exogenous IL-2 / proliferation compared to control cells, pretreated and washed cells without exogenous IL-2: 4 µM pretreatment, PHA-L 10 µg/mL, day three, mean ± SD, three experiments; for proliferation compared to control, pretreated and washed cells with exogenous IL-2: recombinant human IL-2 added
Procedure: as §2
10 µg/milliliter PHA-L for 1 h. This was followed by washing off the substances and stimuli with PBS and resuspending the cells in medium for further assays as described.

IFN-γ = IFN-γ production of activated lymphocytes; assay type: cell-based, human; conditions: 4 µM, mean ± SD; for IFN-γ concentration compared to control: 24 h post stimulation, supernatant, ELISA-based, three experiments
Procedure: as §3

TNF-α = TNF-α production of activated lymphocytes; assay type: cell-based, human; conditions: 4 µM, mean ± SD; for TNF-α production compared to control: 36 h post stimulation, intracellular cytokine flow cytometry
Procedure: as §3

[7] = test system: degranulation marker LAMP-1 (CD107a); assay: CD107a degranulation assay; assay type: cell-based, human; conditions: 36 h, 4 µM, mean ± SD, three experiments
Procedure: as §3

[8] = test system: Ca2+-release in human primary T-cells; assay: Ca2+-release assay in T-cells; assay type: cell-based; conditions: for inhibition or delay of PMA/ionomycin-triggered Ca2+-release after pretreatment: 4 µM overnight (16 h), Fluo-4/Fura Red flow cytometry; for direct change in Ca2+-signaling: 4 µM, Fura-2 loaded T-cells, fluorometer
Procedure: Human primary T-cells (1 x 10^6/mL) were loaded with 1 µM Fura-2 and 0.02% Puronic F-127 for 30 min at 37°C. Cells were centrifuged for 5 min at 1200 rpm and resuspended in RPMI 1640 media supplemented with 10% fetal calf serum, penicillin (100 U/mL) and streptomycin (100 U/mL). 100 µL of cell suspension were transferred into a black 96-well plate with a clear flat-bottom. Briefly before analysis the fluorometer Synergy H4 (BioTek, Winooski, VT) was equilibrated to 37°C. The fluorescence time course was measured with: extinction at 340 and 380 nm, respectively, and emission at 510 nm in 30 sec intervals, while continuously shaking. […] To receive maximum Ca^2+-release, cells were stimulated with PMA (50 ng/mL) and ionomycin (500 ng/mL). For lowest Ca^2+-levels, cells remained untreated. […] (4 µM each) or left untreated over night at 37°C in a 24-well flat-bottom plate. Cells were stained for 15 min with Fluo-4 (2 µM) and Fura Red (4 µM), centrifuged at 1000 rpm for 5 min and resuspended in medium. Ca^2+-release was measured by time-dependent flow cytometry using BD FACSCalibur as described previously. Fluo-4 and Fura Red signals were detected using flow cytometric analysis. After equilibrating basal calcium levels for 60 sec, PMA (50 ng/mL) and ionomycin (500 ng/mL) were added to the preincubated T-cells. Fluorescence ratio was calculated using WEASEL 2.3 software.

[9] = test system: lymphocytes and purified T-cells; assay: Cytotoxicity in proliferation experiments; assay type: cell-based, human; conditions: analyzed concentration range up to 14 µM
Procedure: as §2

Row | Compound | IL-2 surface receptor CD25 expression compared to stimulated lymphocytes (ctrl, 100%) ([3]; 24 h) | IL-2 surface receptor CD25 expression compared to stimulated lymphocytes (ctrl, 100%) ([3]; 36 h) | IL-2 release of T-lymphocytes compared to control cells [4] | level of il-2 mRNA compared to control (il-2 mRNA) | proliferation compared to control, pretreated and washed cells with exogenous IL-2 [6] | proliferation compared to control cells, pretreated and washed cells without exogenous IL-2 [6] | IFN-γ concentration compared to control (IFN-γ) | TNF-α production compared to control (TNF-α) | cells containing degranulation marker LAMP-1 as compared to control [7] | inhibition or delay of PMA/ionomycin-triggered Ca2+-release after pretreatment [8] | direct change in Ca2+-signaling [8] | immunosuppressive activity [1] | suppression of the proliferation of T-cells [2] | also measured
1 | CC(C)C[C@@H]1NC(=O)CNC(=O)[C@H](CC(N)=O)NC(=O)[C@H](CCCNC(=N)N)NC(=O)[C@H]([C@@H](C)O)NC(=O)[C@@H]2CSSC[C@@H]3NC(=O)[C@H]([C@@H](C)O)NC(=O)CNC(=O)CNC(=O)[C@H](C(C)C)NC(=O)[C@@H]4CSSC[C@H](NC(=O)[C@H](CCCCN)NC(=O)[C@H](CSSC[C@H](NC(=O)[C@H](C(C)C)NC(=O)[C@@H]5CCCN5C1=O)C(=O)NCC(=O)N[C@@H](CCC(=O)O)C(=O)N[C@@H]([C@@H](C)O)C(=O)N4)NC(=O)CNC(=O)[C@@H]1CCCN1C(=O)[C@H]([C@@H](C)O)NC(=O)[C@H](CC(N)=O)NC3=O)C(=O)N[C@@H](CO)C(=O)N[C@@H](Cc1c[nH]c3ccccc13)C(=O)N1CCC[C@H]1C(=O)N[C@@H](C(C)C)C(=O)N2 [[T20K]] (cyclo(CGETCVGGTCNTPGCKCSWPVCTRNGLPV); disulfide 1-15, 5-17, 10-22 (inferred); ring closure inferred) | 79% ± 10 | 46% ± 18 | 24% ± 19 | clearly decreased | 91% ± 1.4 | 29% ± 24 | 21% ± 13 | did not affect | 49% ± 17 | Neither cyclotides nor CsA induced any inhibition or a delay | did not induce any change |  |  | IC50 ([1]; CFSE flow cytometry, day three post stimulation, cyclotides 1.8-14 µM, non-linear regression (fixed slope), mean ± SD, a: n=7, b: n=4, c: n=3, read-out: IC50 (µM) ± SD, inhibition of lymphocyte (PBMC) proliferation): 1.9 ± 0.6 µM; IC50 ([2]; CFSE flow cytometry, day 3, non-linear regression (fixed slope), mean ± SD, c: n=3, d: n=2, read-out: IC50 (µM) ± SD, inhibition of purified T-cell proliferation): 2.7 ± 0.6 µM; IL-2 release of purified T-cells [5]: significantly decreased; restoring of normal proliferation by addition of IL-2 ([6]; peptide still present throughout the whole cultivation period (not washed off)): ineffective; IFN-γ level compared to control (IFN-γ; 36 h post stimulation, intracellular cytokine flow cytometry): no effect; TNF-α expression compared to control (TNF-α; 24 h post stimulation, supernatant, ELISA-based): 23% ± 11; cytotoxicity [9]: no signs of cytotoxicity
2 | [T8K]: single point-mutated lysine analogue of kalata B1, position 8 (GLPVCGEKCVGGTCNTPGCTCSWPVCTRN; ends and bridges not checked; cysteine pairing not given here; UniProt P56254 89-117, looked up, variant T8K) |  |  |  |  |  |  |  |  |  |  |  | lost their immunosuppressive activity | did not suppress | IC50 (µM) ± SD, inhibition of lymphocyte (PBMC) proliferation ([1]; CFSE flow cytometry, day three post stimulation, cyclotides 1.8-14 µM, non-linear regression (fixed slope), mean ± SD, a: n=7, b: n=4, c: n=3): not active (n.a.)^b
3 | [V10A]: single point-mutated alanine analogue of kalata B1, position 10 (cyclo(GLPVCGETCAGGTCNTPGCTCSWPVCTRN); disulfide 14-26, 5-19, 9-21; ends not checked; UniProt P56254 89-117, looked up, variant V10A) |  |  |  |  |  |  |  |  |  |  |  | lost their immunosuppressive activity | did not suppress | 
4 | [V10K]: single point-mutated lysine analogue of kalata B1, position 10; 'inactive' mutant (GLPVCGETCKGGTCNTPGCTCSWPVCTRN; ends and bridges not checked; cysteine pairing not given here; UniProt P56254 89-117, looked up, variant V10K) |  |  | no effect |  | did not have any effect | no effect | not affected | did not affect | no influence | Neither cyclotides nor CsA induced any inhibition or a delay | did not induce any change | lost their immunosuppressive activity | did not suppress | IL-2 receptor surface level ([3]; time not given): unaffected
5 | cyclosporin A [CsA, reference compound] | 76% ± 11 | 62% ± 7.3 |  | clearly decreased |  |  |  |  | 42% ± 21 | Neither cyclotides nor CsA induced any inhibition or a delay | did not induce any change |  |  | 
